Data reported in PubChem BioAssay AID1056 (Sanford-Burnham Center for Chemical Genomics, 2008).

Each compound was assayed against Alkaline phosphatase, tissue-nonspecific isozyme (Homo sapiens) (UniProt P05186) (assay: human TNAP enzyme inhibitors, SAR follow-up, biochemical, luminescent, dose response (AID 1056)). Details: purified human TNAP, luminescent substrate read-out; cut-off not given, nearly all actives have IC50 up to about 73 µM.

IC50, active:
O=C(NCCCCO)c1cc(-c2ccc(Cl)cc2Cl)n[nH]1 34.5 nM
COc1cccc(S(=O)(=O)Nc2cnc3ccccc3c2)c1 25800 nM
O=C(c1cc(-c2ccc(Cl)cc2Cl)n[nH]1)N(CCO)CCO 46.8 nM
CN(C)C(=O)c1cc(-c2cc(F)c(Cl)cc2Cl)n[nH]1 324 nM
O=C(NCCO)c1cc(-c2ccc(F)cc2F)n[nH]1 35 nM
O=C(NCCO)c1cc(-c2cc(F)c(Cl)cc2Cl)n[nH]1 100 nM
COc1ccc(OC)c(S(=O)(=O)Nc2cccnc2)c1 1060 nM
O=C1C2CC=CCC2C(=O)N1c1n[nH]c(-c2ccco2)n1 (stereo not given) 4680 nM
O=C(c1cc(-c2cc(F)c(Cl)cc2Cl)n[nH]1)N(CCO)CCO 127 nM
CC(C)CNC(=O)c1cc(-c2ccc(Cl)cc2Cl)n[nH]1 81.5 nM
O=C(NCCCO)c1cc(-c2ccc(Cl)cc2Cl)n[nH]1 31.3 nM
O=C(NCCCO)c1cc(-c2cc(F)c(Cl)cc2Cl)n[nH]1 55.8 nM
O=C(CNc1nc2ccccc2[nH]1)c1ccc(O)c(O)c1 93800 nM
O=C(c1cc(-c2ccc(Cl)cc2Cl)n[nH]1)N1CCOCC1 574 nM
O=C(c1cc(-c2ccc(Cl)cc2Cl)n[nH]1)N1CCN(CCO)CC1 375 nM
COc1cc(C)c(C)cc1S(=O)(=O)Nc1cccnc1 1680 nM
O=C(NCCO)c1cc(-c2ccc(Cl)cc2Cl)n[nH]1 44.4 nM
COc1cc(S(=O)(=O)Nc2cccnc2)c(OC)cc1C 1490 nM
COCCNC(=O)c1cc(-c2ccc(Cl)cc2Cl)n[nH]1 46.4 nM
COc1ccc(F)cc1S(=O)(=O)Nc1cccnc1 1290 nM
CN1CCN(C(=O)c2cc(-c3ccc(Cl)cc3Cl)n[nH]2)CC1 828 nM
O=C1c2ccccc2C(=O)N1c1n[nH]c(Cc2ccccc2)n1 670 nM
O=C1C2CC=CCC2C(=O)N1c1n[nH]c(-c2cccnc2)n1 (stereo not given) 10500 nM
COc1cc(S(=O)(=O)Nc2cccnc2)c(OC)cc1Br 1550 nM
CCN1CCN(C(=O)c2cc(-c3ccc(Cl)cc3Cl)n[nH]2)CC1 488 nM
O=C1C2C3C=CC(C3)C2C(=O)N1c1n[nH]c(CCc2ccccc2)n1 (stereo not given) 30600 nM
Cc1cn(CC(=O)c2ccc(O)c(O)c2)cn1 41100 nM
CCN(CC)C(=O)c1cc(-c2ccc(Cl)cc2Cl)n[nH]1 285 nM
COc1cc(S(=O)(=O)Nc2cccnc2)c(OC)cc1Cl 1130 nM
CC(C)(C)NC(=O)c1cc(-c2ccc(Cl)cc2Cl)n[nH]1 398 nM
COc1ccc2c(c1OC)C(=O)OC2CC(=O)c1ccc(O)c(O)c1 (stereo not given) 29200 nM
O=C(NCCO)c1cc(-c2cc(F)c(F)cc2F)n[nH]1 134 nM
Cc1nc(Br)cn1CC(=O)c1ccc(O)c(O)c1 8740 nM
CC(C)CCNC(=O)c1cc(-c2ccc(Cl)cc2Cl)n[nH]1 459 nM
O=C1C2CCCCC2C(=O)N1c1n[nH]c(Cc2ccccc2)n1 (stereo not given) 1570 nM
CN(C)C(=O)c1cc(-c2ccc(Cl)cc2Cl)n[nH]1 119 nM
COc1ccc(C)cc1S(=O)(=O)Nc1cnc2ccccc2c1 649 nM
CCOc1ccc(Cl)cc1S(=O)(=O)Nc1cccnc1 537 nM
COc1cc(C)c(Cl)cc1S(=O)(=O)Nc1cccnc1 511 nM
O=C(Cn1cnc(Br)c1)c1ccc(O)c(O)c1 47500 nM
O=C1C2CC=CCC2C(=O)N1c1n[nH]c(CCc2ccccc2)n1 (stereo not given) 27900 nM
O=C(c1cc(-c2ccc(Cl)cc2Cl)n[nH]1)N1CCCCCC1 1450 nM
CC(C)NC(=O)c1cc(-c2ccc(Cl)cc2Cl)n[nH]1 51.1 nM
CCOc1cc(C)c(Cl)cc1S(=O)(=O)Nc1cccnc1 691 nM
CC(C)NC(=O)c1cc(-c2cc(F)c(Cl)cc2Cl)n[nH]1 4850 nM
